The values that follow come from ChEMBL document CHEMBL5331131, “Discovery of Acyl-Indole Derivatives as Pan-Serotype Dengue Virus NS4B Inhibitors” (J Med Chem, 2023).

In brackets after ≈: the same amount, converted by molar mass.

The nature of data set [1]: Kinetic solubility of the compound in aqueous buffer at pH 7.4 measured after 4 hrs by UPLC/UV analysis. The following applies: read-out: Kinetic_solubility. The data set is classed as physicochemical.
Data set [2] has as its target Voltage-gated inwardly rectifying potassium channel KCNH2 (Homo sapiens, UniProt Q12809). In words: Displacement of [3H]Dofetilide from human ERG. The format is toxicity.
Data set [3] in a line: Oral bioavailability in Sprague-Dawley rat at 10 mg/kg measured upto 24 to 48 hrs by LC-MS/MS analysis. The following applies: in vivo, time 24-48 hrs. The format is ADME, organism-based.
The nature of data set [4]: Volume of distribution at steady state in CD-1 mouse at 2.5 mg/kg, iv measured for 0.12 to 24 hrs by LC-MS/MS analysis. The data set is classed as ADME, organism-based. Conditions: in vivo, time 0.12-24 hrs, read-out: Vdss.
A short description of data set [5]: Microsomal stability in mouse liver microsomes assessed as intrinsic clearance preincubated for 5 mins followed by NADPH addition measured upto 60 mins by LC-MS/MS analysis. The format is ADME, Microsome. The following applies: time < 65 min, read-out: CLH.
Data set [6] in a line: Clearance in Sprague-Dawley rat at 2.5 mg/kg, iv measured upto 24 hrs by LC-MS/MS analysis. The data set is classed as ADME, organism-based. Conditions: in vivo.
A short description of data set [7]: Metabolic stability in human hepatocytes assessed as intrinsic clearance measured per million cells incubated upto 120 mins by MS analysis. The data set is classed as ADME, cell-based, Hepatocyte. The following applies: read-out: CLH.
A short description of data set [8]: Clearance in CD-1 mouse at 2.5 mg/kg, iv measured for 0.12 to 24 hrs by LC-MS/MS analysis. The data set is classed as ADME, organism-based. The following applies: in vivo, time 0.12-24 hrs.
Data set [9] in a line: Cmax in CD-1 mouse at 10 mg/kg, po measured for 0.5 to 24 hrs by LC-MS/MS analysis. The following applies: in vivo. The data set is classed as ADME, organism-based. More on the design: dose 10 mg/kg, time 0.5-24 hrs, route po.
Data set [10] relates to dengue virus type 2. In words: In vivo antiviral activity against DENV-2/RL infected in AG129 mouse assessed as viral load reduction in plasma administered at 30 mg/kg, po bid for 3 days. The following applies: time 3 day. The data set is classed as functional.
Data set [11] in a line: Half life in Sprague-Dawley rat at 2.5 mg/kg, iv measured by LC-MS/MS analysis. The format is ADME, organism-based. The following applies: in vivo.
Data set [12] can be described thus: Cmax in CD-1 mouse at 1 mg/kg, po measured for 0.5 to 24 hrs by LC-MS/MS analysis. Conditions: in vivo. The data set is classed as ADME, organism-based. Details: dose 1 mg/kg, time 0.5-24 hrs, route po.
Data set [13] can be described thus: Half life in CD-1 mouse at 2.5 mg/kg, iv measured by LC-MS/MS analysis. The data set is classed as ADME, organism-based. The following applies: in vivo.
For data set [14], the system named is dengue virus type 2. The data set can be described thus: In vivo antiviral activity against DENV-2/RL infected in AG129 mouse assessed as viral load reduction administered at 1 to 30 mg/kg, po bid for 3 days. The format is functional, organism-based. The following applies: dose 1-30 mg/kg, time 3.0 day.
Data set [15] is described as follows: Cmax in Sprague-Dawley rat at 10 mg/kg, po measured upto 24 to 48 hrs by LC-MS/MS analysis. The format is ADME, organism-based. Details: time upper 48 hrs, dose 10 mg/kg, time lower 24 hrs, route po. Conditions: in vivo.
Data set [16] relates to dengue virus type 2. The data set can be described thus: Antiviral activity against DENV-2 16681 infected in african green monkey Vero cells incubated for 24 hrs measured after 3 days post infection. The format is functional, organism-based. The following applies: Dengue virus, 16681, Vero.
The nature of data set [17]: Volume of distribution at steady state in Sprague-Dawley rat at 2.5 mg/kg, iv measured upto 24 hrs by LC-MS/MS analysis. Conditions: in vivo, read-out: Vdss. The format is ADME, organism-based.
The subject of another data set is dengue virus type 3. In words: Antiviral activity against DENV-3 H87 infected in african green monkey Vero cells incubated for 24 hrs measured after 3 days post infection. The format is functional, organism-based.
Data set [18] is described as follows: Oral bioavailability in CD-1 mouse at 10 mg/kg measured for 0.5 to 24 hrs by LC-MS/MS analysis. The data set is classed as ADME, organism-based. The following applies: in vivo, time 0.5-24 hrs.
A short description of data set [19]: AUC last in Sprague-Dawley rat at 10 mg/kg, po measured upto 24 to 48 hrs by LC-MS/MS analysis. The format is ADME, organism-based. More on the design: time upper 48 hrs, dose 10 mg/kg, time lower 24 hrs, route po. Conditions: in vivo.
Data set [20] is described as follows: Microsomal stability in human liver microsomes assessed as intrinsic clearance preincubated for 5 mins followed by NADPH addition measured upto 60 mins by LC-MS/MS analysis. The format is ADME, Microsome. Conditions: time < 65 min, read-out: CLH.
Data set [21] can be described thus: Oral bioavailability in CD-1 mouse at 3 mg/kg measured for 0.5 to 24 hrs by LC-MS/MS analysis. The following applies: in vivo, time 0.5-24 hrs. The format is ADME, organism-based.
The subject of the next data set is dengue virus type 4. The data set can be described thus: Antiviral activity against DENV-4 H241 infected in african green monkey Vero cells incubated for 24 hrs measured after 3 days post infection. The format is functional, organism-based.
Data set [22] is described as follows: AUC last in CD-1 mouse at 10 mg/kg, po measured for 0.5 to 24 hrs by LC-MS/MS analysis. The format is ADME, organism-based. More on the design: dose 10 mg/kg, time 0.5-24 hrs, route po. The following applies: in vivo.
Data set [23] in a line: Microsomal stability in rat liver microsomes assessed as intrinsic clearance preincubated for 5 mins followed by NADPH addition measured upto 60 mins by LC-MS/MS analysis. The following applies: time < 65 min, read-out: CLH. The format is ADME, Microsome.
The test system of the next data set is dengue virus type 1. In words: Antiviral activity against DENV-1 TC974#666 infected in african green monkey Vero cells incubated for 24 hrs measured after 3 days post infection. The data set is classed as functional, organism-based. The following applies: TC974#666, Vero.
A short description of data set [24]: Oral bioavailability in CD-1 mouse at 1 mg/kg measured for 0.5 to 24 hrs by LC-MS/MS analysis. Conditions: in vivo, time 0.5-24 hrs. The format is ADME, organism-based.
A short description of data set [25]: AUC last in CD-1 mouse at 1 mg/kg, po measured for 0.5 to 24 hrs by LC-MS/MS analysis. The following applies: in vivo. The format is ADME, organism-based. More on the design: dose 1 mg/kg, time 0.5-24 hrs, route po.
The nature of data set [26]: AUC last in CD-1 mouse at 3 mg/kg, po measured for 0.5 to 24 hrs by LC-MS/MS analysis. More on the design: time upper 24 hrs, time lower 0.5 hrs, dose 3 mg/kg, route po. The format is ADME, organism-based. The following applies: in vivo.
The nature of data set [27]: Cmax in CD-1 mouse at 3 mg/kg, po measured for 0.5 to 24 hrs by LC-MS/MS analysis. The format is ADME, organism-based. Conditions: in vivo. More on the design: time 0.5-24 hrs, dose 3 mg/kg, route po.
Data set [28] is described as follows: Oral bioavailability in CD-1 mouse at 30 mg/kg measured for 0.5 to 24 hrs by LC-MS/MS analysis. The format is ADME, organism-based. The following applies: in vivo, time 0.5-24 hrs.
The nature of data set [29]: AUC last in CD-1 mouse at 30 mg/kg, po measured for 0.5 to 24 hrs by LC-MS/MS analysis. Conditions: in vivo. The format is ADME, organism-based. Details: time upper 24 hrs, time lower 0.5 hrs, dose 30 mg/kg, route po.
Data set [30] in a line: Cmax in CD-1 mouse at 30 mg/kg, po measured for 0.5 to 24 hrs by LC-MS/MS analysis. The data set is classed as ADME, organism-based. More on the design: time upper 24 hrs, dose 30 mg/kg, time lower 0.5 hrs, route po. The following applies: in vivo.
Data set [31] has as its system dengue virus type 2. In words: In vivo antiviral activity against DENV-2/RL infected in AG129 mouse assessed as viral load reduction administered at 3 to 30 mg/kg, po bid for 3 days. The data set is classed as functional, organism-based. The following applies: dose 3-30 mg/kg, time 3.0 day.

Voltage-gated inwardly rectifying potassium channel KCNH2, sequence (Q12809 whole entry): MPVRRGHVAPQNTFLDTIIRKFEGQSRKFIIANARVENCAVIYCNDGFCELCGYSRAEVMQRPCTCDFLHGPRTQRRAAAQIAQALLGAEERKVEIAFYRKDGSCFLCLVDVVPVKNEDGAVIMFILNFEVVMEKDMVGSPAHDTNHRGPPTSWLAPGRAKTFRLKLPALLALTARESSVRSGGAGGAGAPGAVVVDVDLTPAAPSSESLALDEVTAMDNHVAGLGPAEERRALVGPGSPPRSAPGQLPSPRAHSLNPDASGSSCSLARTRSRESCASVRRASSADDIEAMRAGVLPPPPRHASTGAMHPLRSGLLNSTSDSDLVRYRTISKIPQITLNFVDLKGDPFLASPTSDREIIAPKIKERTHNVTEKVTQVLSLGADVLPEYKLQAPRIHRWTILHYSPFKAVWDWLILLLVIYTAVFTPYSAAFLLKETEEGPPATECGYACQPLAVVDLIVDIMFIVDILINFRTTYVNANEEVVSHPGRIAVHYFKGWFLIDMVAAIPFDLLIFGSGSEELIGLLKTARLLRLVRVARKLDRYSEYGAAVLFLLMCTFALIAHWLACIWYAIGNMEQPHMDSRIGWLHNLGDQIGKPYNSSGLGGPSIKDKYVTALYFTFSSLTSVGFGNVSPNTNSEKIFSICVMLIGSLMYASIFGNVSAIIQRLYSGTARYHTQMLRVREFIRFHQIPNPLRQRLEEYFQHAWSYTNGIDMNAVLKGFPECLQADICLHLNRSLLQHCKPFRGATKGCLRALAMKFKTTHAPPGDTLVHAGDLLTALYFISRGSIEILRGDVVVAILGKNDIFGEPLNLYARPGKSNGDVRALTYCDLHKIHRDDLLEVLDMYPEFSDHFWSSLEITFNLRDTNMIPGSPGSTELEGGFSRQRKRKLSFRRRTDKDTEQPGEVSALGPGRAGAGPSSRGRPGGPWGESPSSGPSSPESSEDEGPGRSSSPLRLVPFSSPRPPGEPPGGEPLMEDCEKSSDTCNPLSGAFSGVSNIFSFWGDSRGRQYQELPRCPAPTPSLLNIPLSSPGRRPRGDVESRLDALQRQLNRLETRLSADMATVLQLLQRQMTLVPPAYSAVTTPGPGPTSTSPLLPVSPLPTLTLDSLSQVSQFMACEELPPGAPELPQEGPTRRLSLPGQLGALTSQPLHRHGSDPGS

For `COc1cc(NC(C(=O)c2c[nH]c3cc(OC)c(C)cc23)c2ccc(Cl)cc2OC)cc(OCCO)c1` (single isomer, unassigned; (+)), the solubility kinetic at 4 h in data set [1] was found to be 0.2 µM (≈ 0.105 µg/mL). In data set [2], this compound gave an IC50 of more than 10000 nM. The bioavailability was found to be 45% in [3], 76% in data set [18], 54% in data set [21] and 35% in data set [24]. Besides, the Vd in [4] turned out to be 3.3 L/kg; in data set [17], 6.8 L/kg. The microsomal CLint in data set [5], in [20] and in data set [23] was less than 8 µL/min/mg each time. Moreover, the clearance worked out at 6.8 mL/min/kg in [6] and 6.3 mL/min/kg in data set [8]. In data set [7], the hepatocyte CLint was less than 1.9 µL/min/1e6 cells. Moreover, the Cmax worked out at 1760 ng/mL in data set [9], 83 ng/mL in [12], 365 ng/mL in data set [15] and 345 ng/mL in [27]. For the same compound, the Activity in the data set on dengue virus type 2 [10] was 2.9 log10/ml; in the data set on dengue virus type 2 [14], “Dose-Dependent Effect”. The half-life in [11] was 11.5 h; in data set [13] it was 6.2 h. In addition, the EC50 with dengue virus type 2 [16] was determined as 1 nM; with dengue virus type 3, 26 nM; with dengue virus type 4 (Dengue virus, H241, Vero), 84 nM; in the data set on dengue virus type 1, 4 nM. The AUC(0-t) came out at 8390 ng·h/mL in [19], 19100 ng·h/mL in [22], 872 ng·h/mL in data set [25] and 4050 ng·h/mL in data set [26].
Take `COc1cc(NC(C(=O)c2c[nH]c3cc(F)ccc23)c2ccc(Cl)cc2OC)cc(OCCO)c1` (single isomer, unassigned; (+)) [listing 1 of 2 here]: the solubility kinetic at 4 h in data set [1] was 1 µM (≈ 0.499 µg/mL). The compound also returned an IC50 in data set [2] of 10000 nM. The bioavailability is 69% in data set [3], 85% in [28], 52% in [18] and 40% in data set [21]. Besides, the Vd was 2 L/kg in data set [4] and 10.1 L/kg in data set [17]. Moreover, the microsomal CLint in data set [5] was 32 µL/min/mg; in data set [20], less than 8 µL/min/mg; in data set [23] it was 9 µL/min/mg. Moreover, the AUC(0-t) is 29500 ng·h/mL in [29], 2430 ng·h/mL in data set [19], 6030 ng·h/mL in data set [22] and 1410 ng·h/mL in data set [26]. Moreover, the clearance in data set [6] amounted to 46.2 mL/min/kg; in [8] it was 16.6 mL/min/kg. Also, the hepatocyte CLint in data set [7] is less than 1.9 µL/min/1e6 cells. The Cmax in data set [9] was determined as 1720 ng/mL; in data set [30], 5100 ng/mL; in [15] it was 192 ng/mL; in data set [27], 435 ng/mL. Moreover, the Activity in the data set on dengue virus type 2 [10] turned out to be 2 log10/ml. The half-life in [11] was 6.4 h; in data set [13], 2 h. Also, the EC50 with dengue virus type 3 stood at 63 nM; in the data set with dengue virus type 4 (vero), 240 nM; with dengue virus type 1, 8 nM.
As to `COc1cc(NC(C(=O)c2c[nH]c3cc(F)ccc23)c2ccc(Cl)cc2OC)cc(OCCO)c1` (single isomer, unassigned; (+)) [listing 2 of 2 here], the Activity entry in the data set with dengue virus type 2 [31] is “Dose-Dependent Effect”.
